Legend:
[1] = tested on: MOML-13 acute myeloid leukemia (AML) cells; test: In vitro differentiation, CD14 and CD11b staining, FACS; assay type: cell-based, human; settings: 100 nM, 72 hours, vs DMSO, anti-CD14 and CD11b (FIG. 8)
Source text: (§1) The side-effects associated with these DHODH inhibitors are believed to be due to off-target activities such as kinase inhibition [21; 22]. […] The antiviral compound GSK983 was recently reported as a DHODH inhibitor [23]. […] FACS analysis was done on FACSCalibur (FIG. 8).

[2] = target: DHODH (Homo sapiens, UniProt Q02127); test: Purified rhDHODH enzymatic assay; assay type: biochemical; parameters: full length purified recombinant human DHODH or mitochondria isolated from K562 cells were used as enzyme sources; settings: compared with activity in hematologic cancer cells and other DHODH inhibitors
DHODH, sequence (Q02127 whole entry, canonical isoform): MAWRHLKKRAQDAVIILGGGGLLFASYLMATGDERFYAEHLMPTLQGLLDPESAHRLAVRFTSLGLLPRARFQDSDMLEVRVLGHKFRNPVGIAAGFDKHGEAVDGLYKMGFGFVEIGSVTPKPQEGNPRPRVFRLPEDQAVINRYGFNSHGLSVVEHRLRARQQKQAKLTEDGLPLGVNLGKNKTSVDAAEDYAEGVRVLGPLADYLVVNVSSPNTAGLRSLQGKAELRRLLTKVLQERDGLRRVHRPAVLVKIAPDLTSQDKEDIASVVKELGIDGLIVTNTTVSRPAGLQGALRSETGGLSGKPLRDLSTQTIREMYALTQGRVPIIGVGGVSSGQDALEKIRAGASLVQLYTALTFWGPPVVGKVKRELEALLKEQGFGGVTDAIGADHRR
Source text: Low pyrimidine pool levels may affect certain translation factor(s) or mechanisms required for the non-canonical protein synthesis of stress-regulated mRNAs. […] EIF1A is an isoform that controls translation start codon recognition. Low uridine levels may also affect the mRNA substrate directly: depletion of pyrimidine nucleotides in cancer cells can cause a starvation-like stress response leading to changes in methylation and pseudouridylation of mRNA modifications.
In Vitro DHODH Activity Assays. The chromogen reduction assay was carried out as previously reported. DHODH activity was determined in the presence of compounds or vehicle control using the standard colorimetric DHODH continuous assay in which the oxidation of dihydroorotic acid (DHO) and subsequent reduction of ubiquinone is coupled with and measured by monitoring the reduction of 2,6-dichlorophenolindophenol (DCPIP). Briefly, full length purified recombinant human DHODH or mitochondria isolated from K562 cells were used as enzyme sources to test compound inhibition of DHODH activity. […] The DCIP reduction was monitored by measuring the absorbance at OD610 nm on a BioTek Power Wave XS2 and the enzyme reaction velocity was derived for each reaction using the GENS software.

[3] = tested on: de novo pyrimidine nucleotide synthesis in HT1080 cells; test: 15N-glutamine tracing study: pyrimidine nucleotide synthesis metabolites by LC-MS/MS; assay type: cell-based, human; settings: 100 nM, 8 hours, vs 0.5% DMSO, LC/MS (FIG. 1a)
[4] = tested on: MOLM-13 AML cells; test: Leukemia cell proliferation, comparison of DHODH inhibitors; assay type: cell-based; settings: Homo sapiens, MOLM-13, 96 h, proliferation (FIG. 4d)
[5] = tested on: VEGFA protein production in HT1080 cells; test: VEGFA protein production as surrogate for inhibition of DHODH function; assay type: cell-based, human; settings: blocked by added uridine, not adenosine, cytidine, guanosine (FIG. 1d)
Procedure: (§2) Determination of ELISA EC50 and Cytotoxicity CC50: All ELISAs were performed using commercially available ELISA kits (R&D Systems) according to the manufacturer's instructions. The screen of 240 cell lines were performed in Crown Bioscience (Shanghai, China). […] Data generated from ELISA or cytotoxicity studies were plotted with Prism software, with the Y-axis typically representing the % inhibition and the X-axis representing log compound concentration. A sigmoid dose response with a variable slope regression curve was generated for each compound. Maximal inhibition was set at 100% and minimal at 0%. EC50 and CC50 values were automatically calculated after curve fitting using the Prism software.

[6] = tested on: HL-60 cells (human promyelocytic leukemia cells); test: In vitro combination assay with HL-60 cells (Cell Titer Glo); assay type: cell-based; settings: Homo sapiens, single agent, 111 nM, 72 hours, read-out: proliferative inhibition
Procedure: In vitro Combination Assay with HL-60 cells. […] HL-60 cells are reported to express the wild-type IDH2 gene/protein. […] Concentrations of enasidenib were tested at: 0, 0.1, 0.3, 1.3, 6.4, 32, 160, 800, 4,000 and 20,000 nM. The combinations were evaluated in a full checkerboard titration. The extent of proliferation at 72 hours was determined by addition of Cell Titer Glo, and the percent inhibition calculated as referenced to vehicle/DMSO treated HL-60 cells.

[7] = subjects with solid tumors [24]; cited from earlier work
[8] = tested on: panel of 240 tumor cell lines; test: Tumor cell line panel proliferation (CellTiter-Glo); assay type: cell-based; settings: IC50≤2 μM (FIG. 4a)
Procedure: as §2

[9] = tested on: MOLT-4 human ALL tumor cells; test: MOLT-4 human acute lymphoblastic leukemia lethality model; assay type: in vivo; settings: NOD/SCID mice, 10 mg/kg qd
Procedure: Doxorubicin was tested at the highest dose tolerated by NOD/SCID mice.
Systemic Leukemia Lethality Model: Male NOD-SCID mice were inoculated with MOLT-4 human ALL tumor cells (1×10^7 cells in 200 μL PBS) by intravenous (IV) injection. […] The mice were dosed and observed until moribund, at which time they were euthanized. At 2- and 4-weeks post-inoculation, whole blood was obtained from 5 mice per group by retro-orbital bleeding, stained with an antibody against human CD45, and the number of CD45-positive cells was determined by FACs. Data in FIG. 5b represents % of human CD45+ from blood of each mouse; where * indicates p<0.05, one way ANOVA, with multiple comparisons vs vehicle.

[10] = target: panel of biologically important human kinases; test: Kinase panel; assay type: biochemical; settings: off-target panel
Source text: as §1

With COc1ccc([C@H]2c3[nH]c4ccc(Cl)cc4c3CCN2C(=O)Oc2ccc(Cl)cc2)cc1 [Cpd 1, 4-chlorophenyl (S)-6-chloro-1-(4-methoxyphenyl)-1,3,4,9-tetrahydro-2H-pyrido[3,4-b]indole-2-carboxylate] the in vitro differentiation [1] was “induces in vitro differentiation”, the “inhibition of DHODH functional activity in purified rhDHODH enzymatic assays” value [2] was “less inhibition of DHODH functional activity” and the “total levels of deoxy-pyrimidine nucleotides (dCTP and dTTP) but not deoxy-purine nucleotides dATP and dGTP” value [3] was “selectively decreased”. The IC50 [4] was roughly 1 nM, the VEGFA protein production [5] was “inhibition of VEGFA protein production” and the inhibition at 0.111 µM [6] was roughly 20%. The myeloid suppression [7] was “did not show myeloid suppression”, the hematopoietic lines sensitive ([8]; 32/56 lines) was 57% and the “solid tumor lines sensitive” value ([8]; 34/184 lines) was 18%. For the same compound, the “number of circulating MOLT-4 cells (CD45+)” value ([9]; compared to doxorubicin (FIG. 5b)) was “significantly reduced”, the “median survival time (MST)” value ([9]; vehicle 46 days, p<0.05) was 136 days and the kinase enzyme activity [10] was “lack of inhibition of kinase enzyme activity”.

Reference: US11458126B2, “DHODH inhibitor for use in treating hematologic cancers” (PTC THERAPEUTICS, INC., priority 2017, dated 2022)
